Results reported in ChEMBL document CHEMBL1201862, “PubChem BioAssay data set” (2004).
Activity calls are given as the source filed them.

Columns and labels:
Type in all cases: functional
[1] = target: Activin receptor type-1 (Homo sapiens, UniProt Q04771); assay: Navigating the Kinome. Panel member name: ACVR1
[2] = target: Serine/threonine-protein kinase N2 (Homo sapiens, UniProt Q16513)
[3] = target: G protein-coupled receptor kinase 5 (Homo sapiens, UniProt P34947); assay: Navigating the Kinome. Panel member name: GPRK5
[4] = target: Mitogen-activated protein kinase 12 (Homo sapiens, UniProt P53778);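 also: measured as one member of a kinome-wide kinase profiling panel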
[5] = target: Cyclin-dependent kinase 7 (Homo sapiens, UniProt P50613);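 also: value comes from a kinome-wide kinase profiling panel in which CDK7 is one member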
Cyclin-dependent kinase 7, sequence (P50613 whole entry): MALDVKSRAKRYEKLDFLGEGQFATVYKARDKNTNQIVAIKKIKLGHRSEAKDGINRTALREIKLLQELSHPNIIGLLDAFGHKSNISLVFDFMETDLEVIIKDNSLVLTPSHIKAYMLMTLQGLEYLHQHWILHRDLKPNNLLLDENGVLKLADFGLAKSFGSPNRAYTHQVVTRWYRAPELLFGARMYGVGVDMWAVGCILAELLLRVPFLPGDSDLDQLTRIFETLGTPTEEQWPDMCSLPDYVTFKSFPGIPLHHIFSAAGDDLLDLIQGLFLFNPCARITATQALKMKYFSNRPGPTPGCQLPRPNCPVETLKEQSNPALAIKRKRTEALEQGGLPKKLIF

[6] = target: Serine/threonine-protein kinase MRCK alpha (Homo sapiens, UniProt Q5VT25)
[7] = target: Serine/threonine-protein kinase PLK4 (Homo sapiens, UniProt O00444);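 also: PLK4 measured as one member of a kinome-wide kinase profiling panel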
[8] = target: Rho-associated protein kinase 1 (Homo sapiens, UniProt Q13464);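 also: measured within a broad kinome-wide panel profiling many kinases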
[9] = target: Serine/threonine-protein kinase D3 (Homo sapiens, UniProt O94806);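 also: determined within a kinase panel screen, with PRKCN as the panel member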
[10] = target: Serine/threonine-protein kinase PAK 1 (Homo sapiens, UniProt Q13153)
[11] = target: Insulin receptor (Homo sapiens, UniProt P06213);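 also: insulin receptor kinase tested as one member of a kinome-wide kinase panel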
[12] = target: Aurora kinase B (Homo sapiens, UniProt Q96GD4)
[13] = target: Ribosomal protein S6 kinase beta-1 (Homo sapiens, UniProt P23443);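 also: measured as one member of a kinome-wide profiling panel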
Ribosomal protein S6 kinase beta-1, sequence (P23443 whole entry, canonical isoform): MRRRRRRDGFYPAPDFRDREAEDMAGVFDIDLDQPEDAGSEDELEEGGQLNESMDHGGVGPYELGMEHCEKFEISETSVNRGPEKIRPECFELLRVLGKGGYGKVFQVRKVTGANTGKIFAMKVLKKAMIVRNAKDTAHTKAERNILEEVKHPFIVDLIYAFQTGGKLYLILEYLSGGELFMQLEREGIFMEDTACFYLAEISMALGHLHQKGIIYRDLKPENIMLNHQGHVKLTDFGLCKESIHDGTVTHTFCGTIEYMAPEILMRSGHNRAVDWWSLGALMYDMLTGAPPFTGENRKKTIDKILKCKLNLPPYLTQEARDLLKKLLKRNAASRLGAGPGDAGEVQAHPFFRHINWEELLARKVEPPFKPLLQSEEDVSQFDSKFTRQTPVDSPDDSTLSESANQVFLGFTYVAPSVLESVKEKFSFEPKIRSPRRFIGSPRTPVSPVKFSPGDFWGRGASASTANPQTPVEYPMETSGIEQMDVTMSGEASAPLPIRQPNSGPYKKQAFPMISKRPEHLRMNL

[14] = target: Casein kinase I isoform delta (Homo sapiens, UniProt P48730);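 also: measured as one member (CSNK1D) of a kinome panel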
[15] = target: Calcium/calmodulin-dependent protein kinase type II subunit delta (Homo sapiens, UniProt Q13557)
[16] = target: T1, Interleukin-1 receptor-associated kinase 4 (Homo sapiens, UniProt Q9NWZ3)
T1 sequence (Q9NWZ3 whole entry): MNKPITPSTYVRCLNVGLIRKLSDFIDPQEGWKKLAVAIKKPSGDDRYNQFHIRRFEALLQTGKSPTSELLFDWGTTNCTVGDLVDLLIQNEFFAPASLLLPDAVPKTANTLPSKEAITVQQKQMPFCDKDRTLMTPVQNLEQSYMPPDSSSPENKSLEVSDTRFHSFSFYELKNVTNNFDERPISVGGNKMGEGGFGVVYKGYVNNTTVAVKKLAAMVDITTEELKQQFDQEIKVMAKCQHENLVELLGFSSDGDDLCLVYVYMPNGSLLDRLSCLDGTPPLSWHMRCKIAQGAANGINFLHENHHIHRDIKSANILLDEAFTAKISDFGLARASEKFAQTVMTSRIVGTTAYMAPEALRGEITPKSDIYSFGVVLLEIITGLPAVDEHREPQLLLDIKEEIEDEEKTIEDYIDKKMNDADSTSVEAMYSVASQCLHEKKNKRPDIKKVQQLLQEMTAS

[17] = target: Glycogen synthase kinase-3 beta (Homo sapiens, UniProt P49841);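 also: value comes from a broad kinome profiling panel, with GSK3B as the panel member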
[18] = target: Dual specificity tyrosine-phosphorylation-regulated kinase 4 (Homo sapiens, UniProt Q9NR20)
Dual specificity tyrosine-phosphorylation-regulated kinase 4, sequence (Q9NR20 whole entry): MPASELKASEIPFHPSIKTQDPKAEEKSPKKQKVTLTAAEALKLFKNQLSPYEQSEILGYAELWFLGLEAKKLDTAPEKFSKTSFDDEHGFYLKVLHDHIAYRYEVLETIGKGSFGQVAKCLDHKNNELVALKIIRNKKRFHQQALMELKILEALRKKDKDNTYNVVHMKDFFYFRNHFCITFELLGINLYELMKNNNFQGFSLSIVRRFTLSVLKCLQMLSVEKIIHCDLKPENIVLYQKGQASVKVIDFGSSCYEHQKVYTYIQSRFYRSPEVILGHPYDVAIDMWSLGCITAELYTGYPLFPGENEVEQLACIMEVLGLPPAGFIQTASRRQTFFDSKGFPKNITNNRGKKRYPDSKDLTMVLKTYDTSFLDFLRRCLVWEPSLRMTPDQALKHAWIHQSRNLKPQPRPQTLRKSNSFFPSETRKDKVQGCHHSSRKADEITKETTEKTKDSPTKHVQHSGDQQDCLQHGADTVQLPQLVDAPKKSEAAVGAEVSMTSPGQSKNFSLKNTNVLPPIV

[19] = target: Vascular endothelial growth factor receptor 3 (Homo sapiens, UniProt P35916);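 also: value from a kinome-wide profiling panel, with FLT4 as the panel member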
Vascular endothelial growth factor receptor 3, sequence (P35916 whole entry): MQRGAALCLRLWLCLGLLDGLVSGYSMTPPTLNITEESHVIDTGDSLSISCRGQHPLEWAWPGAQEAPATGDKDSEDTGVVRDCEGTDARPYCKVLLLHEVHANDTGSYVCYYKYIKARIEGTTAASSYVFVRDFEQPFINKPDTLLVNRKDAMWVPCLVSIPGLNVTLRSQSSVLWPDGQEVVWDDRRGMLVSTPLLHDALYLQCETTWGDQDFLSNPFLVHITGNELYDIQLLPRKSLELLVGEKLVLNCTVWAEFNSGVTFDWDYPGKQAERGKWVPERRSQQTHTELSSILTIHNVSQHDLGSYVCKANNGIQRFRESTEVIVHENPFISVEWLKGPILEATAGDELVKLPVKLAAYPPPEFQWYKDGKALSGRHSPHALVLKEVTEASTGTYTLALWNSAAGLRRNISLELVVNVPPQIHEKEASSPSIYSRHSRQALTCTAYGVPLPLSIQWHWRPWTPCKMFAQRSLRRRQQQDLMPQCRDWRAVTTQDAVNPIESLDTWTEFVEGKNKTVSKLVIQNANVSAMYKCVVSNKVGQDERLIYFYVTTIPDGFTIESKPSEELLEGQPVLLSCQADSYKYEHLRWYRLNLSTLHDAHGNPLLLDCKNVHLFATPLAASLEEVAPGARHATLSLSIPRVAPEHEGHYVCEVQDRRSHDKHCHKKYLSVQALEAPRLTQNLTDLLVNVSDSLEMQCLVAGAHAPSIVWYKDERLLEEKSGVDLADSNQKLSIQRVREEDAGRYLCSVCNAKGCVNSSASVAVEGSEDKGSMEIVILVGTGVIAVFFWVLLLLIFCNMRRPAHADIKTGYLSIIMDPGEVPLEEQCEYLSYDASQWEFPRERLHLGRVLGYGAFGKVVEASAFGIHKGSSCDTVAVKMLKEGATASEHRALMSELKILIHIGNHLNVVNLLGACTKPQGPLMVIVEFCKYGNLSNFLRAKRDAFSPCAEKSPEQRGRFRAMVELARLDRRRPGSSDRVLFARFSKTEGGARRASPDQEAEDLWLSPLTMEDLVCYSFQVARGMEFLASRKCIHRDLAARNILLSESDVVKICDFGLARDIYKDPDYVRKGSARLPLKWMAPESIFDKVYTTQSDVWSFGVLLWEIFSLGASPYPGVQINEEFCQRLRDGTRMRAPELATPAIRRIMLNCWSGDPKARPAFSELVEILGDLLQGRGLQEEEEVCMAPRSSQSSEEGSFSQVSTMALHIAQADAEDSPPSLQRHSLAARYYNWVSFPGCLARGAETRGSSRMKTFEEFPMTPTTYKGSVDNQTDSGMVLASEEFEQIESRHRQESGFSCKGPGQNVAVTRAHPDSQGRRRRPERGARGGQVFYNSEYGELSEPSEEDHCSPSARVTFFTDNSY

[20] = target: MAP kinase-activated protein kinase 3 (Homo sapiens, UniProt Q16644);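 also: value comes from a kinome-wide profiling panel in which MAPKAPK3 is one of the panel members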
[21] = target: SRSF protein kinase 1 (Homo sapiens, UniProt Q96SB4);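 also: measured as one member of a kinome-wide kinase profiling panel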
[22] = target: Calcium/calmodulin-dependent protein kinase type II subunit gamma (Homo sapiens, UniProt Q13555)
[23] = target: Tyrosine-protein kinase JAK3 (Homo sapiens, UniProt P52333)
Tyrosine-protein kinase JAK3, sequence (P52333 whole entry): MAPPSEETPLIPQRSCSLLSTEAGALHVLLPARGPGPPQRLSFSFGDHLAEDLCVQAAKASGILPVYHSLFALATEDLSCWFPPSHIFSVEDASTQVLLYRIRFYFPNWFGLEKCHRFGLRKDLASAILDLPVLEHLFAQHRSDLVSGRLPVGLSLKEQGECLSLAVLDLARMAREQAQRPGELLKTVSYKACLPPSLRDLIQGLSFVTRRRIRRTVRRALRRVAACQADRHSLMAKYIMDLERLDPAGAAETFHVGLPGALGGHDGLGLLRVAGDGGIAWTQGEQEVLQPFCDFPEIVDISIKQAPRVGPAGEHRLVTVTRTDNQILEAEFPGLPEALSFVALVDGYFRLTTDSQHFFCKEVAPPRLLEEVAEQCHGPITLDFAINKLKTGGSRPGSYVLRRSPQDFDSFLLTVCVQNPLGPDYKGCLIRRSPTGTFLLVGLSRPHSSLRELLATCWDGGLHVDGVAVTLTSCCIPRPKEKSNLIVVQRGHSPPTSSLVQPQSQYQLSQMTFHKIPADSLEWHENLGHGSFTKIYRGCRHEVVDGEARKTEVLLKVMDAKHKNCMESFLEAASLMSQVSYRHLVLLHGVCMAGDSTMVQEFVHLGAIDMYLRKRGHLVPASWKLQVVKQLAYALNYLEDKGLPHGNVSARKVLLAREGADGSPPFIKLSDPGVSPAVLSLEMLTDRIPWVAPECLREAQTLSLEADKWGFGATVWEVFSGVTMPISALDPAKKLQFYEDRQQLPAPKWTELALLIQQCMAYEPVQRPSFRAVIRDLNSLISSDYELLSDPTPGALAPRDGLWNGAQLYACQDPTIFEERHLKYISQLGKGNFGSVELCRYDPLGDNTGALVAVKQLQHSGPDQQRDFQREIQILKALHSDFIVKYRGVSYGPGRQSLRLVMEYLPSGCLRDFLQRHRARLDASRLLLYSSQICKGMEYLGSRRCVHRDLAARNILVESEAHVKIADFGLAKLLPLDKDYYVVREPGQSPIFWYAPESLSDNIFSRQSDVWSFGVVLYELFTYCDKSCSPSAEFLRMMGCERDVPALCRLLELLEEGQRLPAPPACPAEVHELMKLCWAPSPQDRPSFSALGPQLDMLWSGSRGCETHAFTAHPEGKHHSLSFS

Serine/threonine-protein kinase N2, sequence (Q16513 whole entry): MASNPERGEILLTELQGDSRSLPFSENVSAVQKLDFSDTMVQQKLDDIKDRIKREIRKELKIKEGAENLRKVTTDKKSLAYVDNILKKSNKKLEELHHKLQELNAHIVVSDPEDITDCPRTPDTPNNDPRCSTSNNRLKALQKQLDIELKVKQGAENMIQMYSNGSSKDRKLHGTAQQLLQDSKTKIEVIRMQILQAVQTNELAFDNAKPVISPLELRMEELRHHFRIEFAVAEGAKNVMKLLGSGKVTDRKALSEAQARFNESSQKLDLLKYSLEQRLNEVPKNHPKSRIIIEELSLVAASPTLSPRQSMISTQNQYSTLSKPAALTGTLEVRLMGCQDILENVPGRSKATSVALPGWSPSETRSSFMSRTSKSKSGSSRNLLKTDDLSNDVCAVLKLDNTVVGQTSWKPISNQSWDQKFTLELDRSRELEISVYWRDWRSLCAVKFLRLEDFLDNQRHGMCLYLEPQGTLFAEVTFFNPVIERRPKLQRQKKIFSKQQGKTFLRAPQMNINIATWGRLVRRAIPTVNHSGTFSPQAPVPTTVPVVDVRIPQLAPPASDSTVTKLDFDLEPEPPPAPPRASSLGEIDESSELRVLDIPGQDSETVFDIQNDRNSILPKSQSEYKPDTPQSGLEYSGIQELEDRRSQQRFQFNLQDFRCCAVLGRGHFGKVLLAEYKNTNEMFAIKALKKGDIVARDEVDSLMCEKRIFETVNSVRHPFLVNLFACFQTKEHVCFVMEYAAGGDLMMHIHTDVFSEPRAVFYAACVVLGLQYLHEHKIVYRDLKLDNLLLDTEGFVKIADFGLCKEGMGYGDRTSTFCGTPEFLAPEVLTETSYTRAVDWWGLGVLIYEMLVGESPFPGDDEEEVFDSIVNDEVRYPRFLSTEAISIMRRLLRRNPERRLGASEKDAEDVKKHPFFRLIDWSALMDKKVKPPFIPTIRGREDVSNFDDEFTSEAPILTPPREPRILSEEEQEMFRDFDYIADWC

Compound: NNc1cc(N2CCOCC2)nc(OCCc2ccccn2)n1
- Ki [1]: > 3.98 µM (inactive)
- Ki [2]: > 7.94 µM (inactive)
- Ki [3]: > 3.98 µM (inactive)
- Ki [4]: > 6.31 µM (inactive)
- Ki [5]: > 3.98 µM (inactive)
- Ki [6]: > 10 µM (inactive)
- Ki [7]: > 3.98 µM (inactive)
- Ki [8]: > 6.31 µM (inactive)
- Ki [9]: > 6.31 µM (inactive)
- Ki [10]: > 10 µM (inactive)
- Ki [11]: > 5.01 µM (inactive)
- Ki [12]: > 6.31 µM (inactive)
- Ki [13]: > 6.31 µM (inactive)
- Ki [14]: > 7.94 µM (inactive)
- Ki [15]: > 6.31 µM (inactive)
- Ki [16]: 2.51 µM (active)
- Ki [17]: > 5.01 µM (inactive)
- Ki [18]: > 7.94 µM (inactive)
- Ki [19]: > 6.31 µM (inactive)
- Ki [20]: > 10 µM (inactive)
- Ki [21]: > 7.94 µM (inactive)
- Ki [22]: > 6.31 µM (inactive)
- Ki [23]: > 5.01 µM (inactive)
